From patent publication US11865091B2, “Supporting immunomodulatory agent” (Flexopharm Brain GMBH & Co. KG, priority 2014, dated 2024)
“Also recorded” adds a separate entry of the source.

Experiments:
[1] = tested on: intestinal microbiota; assay: Composition of the intestinal microbiome; assay type: in vivo, mice; conditions: for effect on normal intestinal microbiota / number of bacteria degrading propionate and butyrate: intestinal microbiome
Text: The inventive acids, in particular propionic acid and butyric acid have an influence on the bowel physiology and the microbiome present there. In this way, they have an impact on the composition of the microbiome.

[2] = tested on: CD4+CD25+ Foxp3 cells; assay: Regulatory T cell levels in mouse EAE model; assay type: in vivo; conditions: for proliferation and amount of regulatory T cells: in the intestines and blood
Procedure: FIG. 4: is a graph showing the effect of propionic acid diet initiated at the time of disease induction (DI) compared to a control group on levels of CD4+CD25+ Foxp3 cells in mouse EAE model.
FIG. 5 is a graph showing the effect of lauric acid diet (250 μM and 500 μM) initiated at the time of disease induction (DI) compared to a control group on levels of CD4+CD25+ Foxp3 cells in mouse EAE model.
(§1) Mice kept under standardized conditions were fed on a normal diet enriched with long-chain fatty acids (30.9% lauric acid) and additionally with 200 μl of propionate daily administered orally. The propionate was given either at the time of disease induction (DI) or at the onset of the disease (OD).
(§2) For the induction of EAE the mice were anesthetized and administered two subcutaneous injections of a 50 μl emulsion applied to the left and right tail basis and comprising a total of 200 μg MOG35-55 (myelin oligodendrocyte glycoprotein) and 200 μg Freund's adjuvant (CFA) with 4 mg/ml of M. tuberculosis. Pertussistoxin ([…]) was given intraperitoneally on day 0 and 2 after the induction. The clinical assessment took place on a daily basis using a 5-point scale (SEM). The assessment was as follows: • 0=normal • 1=Tail paralysis impairing raising • 2=Gait ataxia • 3=Paraparesis of hind legs • 4=Tetraparesis • 5=Death Mice showing SEM 4 or 5 were excluded.

[3] = tested on: TH1 and TH17 cells; assay: Th1/Th17 cells in small intestine and central nervous system, EAE model; assay type: in vivo; conditions: mouse EAE, lauric acid enriched diet
Text: (§3) Moreover, the aliphatic chain length of the carboxylic acids also affects the […] autoimmunity as well as the regulatory response of Treg in an in vivo mouse model.

[4] = tested on: experimental autoimmune encephalomyelitis (EAE); assay: Mouse EAE model: relative axonal density, demyelination of white matter, CD3+ cells; assay type: in vivo; conditions: versus control group, FIG. 3
Procedure: FIG. 3: is a graph showing the effect of propionic acid diet initiated at the time of disease induction (DI) or at the time of onset of symptoms (OD) compared to a diet control group on relative axonal density, demyelination in the white matter, and CD3+ cells in the mouse EAE model.
as §1, §2
The influence of propionic acid on the relative axonal density, the demyelination of the white matter, and the number of CD3+-cells is shown in FIG. 3.

[5] = tested on: Foxp3; assay: Gene expression profiling of signature cytokines in EAE mice; assay type: in vivo, mouse; conditions: EAE mice fed propionic acid
Text: as §3

[6] = tested on: IL-10; assay: as above; assay type: in vivo, mouse; conditions: EAE mice fed propionic acid
Text: as §3

[7] = tested on: TGFβ; assay: as above; assay type: in vivo, mouse; conditions: EAE mice fed propionic acid
Text: as §3

[8] = tested on: experimental autoimmune encephalomyelitis (EAE); assay: Mouse EAE model, daily clinical assessment on 5-point scale (SEM); assay type: in vivo
Procedure: as §1, §2

[9] = tested on: adiponectin; assay: Clinical study of sodium propionate, adiponectin levels; assay type: in vivo, human; conditions: 4 weeks after administration had been terminated, FIG. 6 column C
Text: FIG. 6 is a graph showing the effect of administration of sodium propionate in a clinical study in ten patients on adiponectin levels.

## CCCC(=O)O [butyric acid]
[1]
  effect on normal intestinal microbiota: only slightly affected
  number of bacteria degrading propionate and butyrate: increases significantly
[2]
  proliferation and amount of regulatory T cells: positive effect

## CCCCCCCCCCCC(=O)O [lauric acid, reference compound]
[1]; mice
  number of Provotellaceae and some families of Phylum Bacteroidetes: reduce significantly
[3]
  TH1 and TH17 cells in the small intestine: significant reduction
  Th1/Th17 in the central nervous system: accumulation
[2]; lauric acid 250 μM and 500 μM, FIG. 5
  concentration dependence of the percentage reduction of CD4+CD25+ Foxp3 cells: dependent on concentration
[2]; lauric acid 250 μM and 500 μM, versus control value, FIG. 5
  CD4+CD25+ Foxp3 cells: reduction

## CCC(=O)O [propionic acid]
[1]
  effect on normal intestinal microbiota: only slightly affected
  number of bacteria degrading propionate and butyrate: increases significantly
[4]
  demyelination of the white matter: significant improvement
  number of CD3+ cells: significant improvement
  relative axonal density: significant improvement
[5]
  Foxp3 gene expression: increased values; also recorded: significant increase
[6]
  IL-10 gene expression: increased values; also recorded: significant increase
[7]
  TGFβ gene expression: increased values; also recorded: significant increase
[2]
  proliferation and amount of regulatory T cells: positive effect
[2]; mouse EAE, propionic acid at disease induction (DI), versus control group, FIG. 4
  number of regulatory T cells (CD4+CD25+ Foxp3+ Treg): significant increase
[8]; propionic acid given on the day of onset of disease (OD), FIG. 2
  disease course versus control group: significantly less favorable disease course
[8]; propionic acid given prophylactically (at disease induction, DI)
  disease course versus control group: significant improvement

## CCC(=O)[O-].[Na+] [sodium propionate]
[9]
  duration of the adiponectin effect: lasts longer than the administration duration
